Experimental data taken from patent publication US20020039787A1, “Method for culturing cells” (priority 2000, published 2002).

What was measured:
[1] = system: human myometrial microvascular endothelial cells (MEC); test: Endothelial cell proliferation assay (CellTitre 96 MTS bioassay); type: cell-based; settings: for effect of cAMP promoter on bFGF-stimulated MEC proliferation: IBMX 330 μM, dibutyryl cAMP 50 μM; for stimulation of MEC proliferation by maximal concentrations of growth factors: P5 MEC, M199 with 20% HS, 6 days (FIG. 5); for growth factor-stimulated MEC proliferation with combinations of HS and FCS in the medium: compared with HS alone (FIG. 3B); for dose dependence of stimulated MEC proliferation: concentration range 0.01-20 ng/ml (FIG. 6); for EC50 of growth factor-induced MEC proliferation: 6 days, absorbance as % of maximal response
Method: The CellTitre 96 MTS tetrazolium-based bioassay (Promega, Madison, WT, USA), where the absorbance of the formazan product is directly proportional to the number of viable cells, was used to indirectly measure cell number after incubation of MEC with various mitogens. It was initially established that the MTS bioassay was linear from 0-2 ×10^4 MEC/well. MEC in basal M199 medium (M199 medium containing 5% PCS, 2 mM glutamine, antibiotic/antimycotic mixture) were seeded in triplicate onto fibronectin (10 μg/ml) coated wells of 96 well plates at 2000 cells/well and allowed to attach the quiesce for 36 hours at 37° C. in 5% CO2/air. Medium was replaced with the standard or complex M199 culture medium (day 0) with or without the following growth factors: 10 ng/ml vascular endothelial growth factor (VEGF121;gift from Dr J Abrahams, Scios Inc, Sunnyvale, Calif., USA), 0.01-20 ng/ml VEGF165 (R & D Systems, Minneapolis, Minn., USA) bFGF (0.01-10 ng/ml), 120 μg/ml EC growth factor (ECGF; Boehringer Mannheim) 50 ng/ml epidermal growth factor (EGF; R & D Systems), depending on the assay conditions being tested. In some experiments different concentrations of HS and FCS and combinations of both were tested and in other experiments various component of the complex medium were omitted. Cells were incubated at 37° C. in 5% CO2/air for 6 or 10 days, with medium changes every 2 days. Twenty μl 3-(4,5-dimethylthiazol-2-yl)-5-(3-carboxymethoxyphenyl)-2-(4sulphophenyl)-2H-tetrazolium (MTS) was added to the cells and incubated 2 hours at 37° C. and absorbance measured at 490 nm using a plate reader (Emax, Molecular Devices, Sunnyvale, Calif., USA). Absorbance was also measured on day 0 and this value subtracted from all results to determine MEC growth over 6 days.

[2] = system: human myometrial microvascular endothelial cells (MEC); test: MEC migration assay (monolayer wound assay); type: cell-based; parameters: key to migration of MEC into denuded area, Early Passage MEC (P4) / migration of MEC into denuded area, Late Passage MEC (P12): +/−: very low; +: low; ++: medium; +++: high coverage of the denuded area; settings: for migration of MEC in response to growth factor: 48 hour incubation in basal medium, high and low passage MEC; for migration of MEC into denuded area, Early Passage MEC (P4) / migration of MEC into denuded area, Late Passage MEC (P12): semi-quantitative coverage of denuded area after wounding, basal medium
Method: […] The medium was changed to basal medium, the MEC monolayers wounded using a plastic pasteur pipette and photographed using a Zeiss inverted phase contrast microscope. Duplicate wells were incubated with or without VEGF165 (10 ng/ml) or bFGF (5 ng/ml) in the presence and absence of 40 μg/ml rabbit anti human VEGF antibody (Gargett et al., 1999) or 50 μg/ml goat anti-human bFGF antibody (R & D Systems) respectively for 48 hours at 37° C. in 5% CO/air and the same field of view was rephotographed.
A characteristic feature of EC is their ability to migrate in response to certain growth factors (Goodman et al., 1985; Ferrara and DavisSmyth, 1997). The migration of early and late passage myometrial MEC in response to bFGF and VEGF was examined using the monolayer wound assay (Goodman el al., 1985) in the presence and absence of neutralising bFGF and VEGF antibodies.

[3] = over 10 days, 5 ng/ml bFGF, 15% HS/5% FCS (FIG. 4)
[4] = early (low) passage MEC (P1, P2, P3)
[5] = late (high) passage MEC (P10, P13)

Row | Compound | effect of cAMP promoter on bFGF-stimulated MEC proliferation [1, 3] | stimulation of MEC proliferation by maximal concentrations of growth factors [1] | migration of MEC in response to growth factor [2] | migration of MEC into denuded area, Early Passage MEC (P4) [2] | migration of MEC into denuded area, Late Passage MEC (P12) [2] | growth factor-stimulated MEC proliferation with combinations of HS and FCS in the medium [1] | dose dependence of stimulated MEC proliferation [1] | EC50 of growth factor-induced MEC proliferation [1, 4] | difference in absorbance between maximal and minimal response measured at day 6 ([1]; high passage MEC, n=2) | EC50 of growth factor-induced MEC proliferation [1, 5] | difference in absorbance between maximal and minimal response measured at day 6 ([1]; low passage MEC, n=3) | other results
1 | C[C@]12CCC(=O)C=C1CC[C@@H]1[C@@H]2[C@@H](O)C[C@@]2(C)[C@H]1CC[C@]2(O)C(=O)CO [Hydrocortisone, hydrocortisone, reference compound] |  |  |  |  |  |  |  |  |  |  |  | effect on bFGF-induced myometrial MEC proliferation ([1]; in the presence or absence of IBMX or dibutyryl cAMP (results not shown)): no significant effect
2 | CC(C)Cn1c(=O)n(C)c(=O)c2[nH]cnc21 [IBMX, 3-isobutyl-1-methyl xanthine, reference compound] | significantly greater proliferation of myometrial MEC over 10 days in the absence |  |  |  |  |  |  |  |  |  |  | 
3 | CCCC(=O)Nc1ncnc2c1ncn2[C@@H]1O[C@@H]2COP(=O)(O)O[C@H]2[C@H]1OC(=O)CCC [dibutyryl cAMP, N-6, 2 ′-O-dibutyryl adenosine 3′,5′-cyclic monophosphate, reference compound] | significantly greater proliferation of myometrial MEC over 10 days in the absence |  |  |  |  |  |  |  |  |  |  | effect of cAMP promoter on bFGF-stimulated MEC proliferation ([1]; after 5 days, 5 ng/ml bFGF (FIG. 4)): greater growth was observed in the absence
4 | EGF: epidermal growth factor (R & D Systems) (NSDSECPLSHDGYCLHDGVCMYIEALDKYACNCVVGYIGERCQYRDLKWWELR; Epidermal growth factor; UniProt P01133 971-1023, looked up) |  | weakly mitogenic |  |  |  |  |  |  |  |  |  | 
5 | bFGF: mitogen, growth factor (Gibco BRL) |  | maximal stimulation of MEC proliferation | migrated into the denuded area to a comparable extent | +++ | ++ | even greater levels of MEC proliferation | dose dependent manner | ~0.6 ng/mL | 0.82 | ~0.9 ng/mL | 0.50 ±0.07 | 
6 | vascular endothelial growth factor [VEGF] |  |  | migrated into the denuded area to a comparable extent | +++ | +++ | even greater levels of MEC proliferation | dose dependent manner | ~1.5 ng/mL | 0.70 | ~1.6 ng/mL | 0.51 ±0.09 | 
